From patent US6995184B2, “3-arylindole derivatives and their use as CB2 receptor agonists” (Sanofi-Aventis, priority 2000, dated 2006)

Target: T1, cannabinoid receptors present in the mouse spleen (Mus musculus, UniProt P47936)
T1 construct: from tissue; host or cells: mouse spleen
Test: In vivo affinity for cannabinoid receptors in mouse spleen after oral administration
Experimental: The tests were carried out according to the experimental conditions described by Rinaldi-Carmona et al., J. Pharmacol. Exp. Ther., 1998, 284, 644–650.
Thus, the compounds of Examples 7, 44, 46, 72, 89, 106, 120, 130 and 132, for which the ratio of the affinity for the CB1 receptors to that for the CB2 receptors is between 400 and 4 000, are active orally with an ED50 of between 0.2 mg/kg and 20 mg/kg.

T1 sequence (P47936 whole entry): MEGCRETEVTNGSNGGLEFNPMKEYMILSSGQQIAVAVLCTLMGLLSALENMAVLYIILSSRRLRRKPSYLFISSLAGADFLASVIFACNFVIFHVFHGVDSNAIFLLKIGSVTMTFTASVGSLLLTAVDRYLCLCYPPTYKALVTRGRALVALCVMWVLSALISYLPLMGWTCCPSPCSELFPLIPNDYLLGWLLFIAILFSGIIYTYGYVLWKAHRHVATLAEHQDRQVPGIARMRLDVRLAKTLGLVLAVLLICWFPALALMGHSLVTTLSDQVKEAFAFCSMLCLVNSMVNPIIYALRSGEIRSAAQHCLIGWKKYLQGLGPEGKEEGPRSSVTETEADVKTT

Molecule `Cc1c(C(=O)c2cccc(C(F)(F)F)c2F)c2ccc(Cl)c(Cl)c2n1CCCNS(C)(=O)=O` [Example 72, N-(3-(6,7-Dichloro-3-[2-fluoro-3-(trifluoromethyl)benzoyl]-2-methyl-1H-indol-1-yl)propyl)methanesulphonamide] has an ED50 of 0.2 to 20 mg/kg.
For `Cc1c(C(=O)c2cccc(Cl)c2Cl)c2cccc(Br)c2n1CCCS(C)(=O)=O` [Example 7, (7-Bromo-2-methyl-1-(3-(methylsulphonyl)propyl)-1H-indol-3-yl)(2,3-dichlorophenyl)methanone], the ED50 was 0.2 to 20 mg/kg.
